Measurements published in ChEMBL document CHEMBL5506059, “Cyanomethylquinolones as a New Class of Potential Multitargeting Broad-Spectrum Antibacterial Agents” (J Med Chem, 2024).
Converted amounts (≈) assume the structure as drawn. The source made the active and inactive calls. The calls are words filed in the database; no cut-off is given here.

What was measured:
Staphylococcus aureus [1] = test: Antibacterial activity against methicillin resistant Staphylococcus aureus clinical isolate assessed as inhibition of bacterial growth incubated for 24 hrs; assay type: functional
Staphylococcus aureus [2] = test: Antibacterial activity against Staphylococcus aureus clinical isolate assessed as inhibition of bacterial growth incubated for 24 hrs; assay type: functional
Staphylococcus aureus [3] = test: Antibacterial activity against Staphylococcus aureus ATCC 25923 assessed as inhibition of bacterial growth incubated for 24 hrs; assay type: functional
Staphylococcus aureus [4] = test: Antibacterial activity against Staphylococcus aureus ATCC 29213 assessed as inhibition of bacterial growth incubated for 24 hrs; assay type: functional
Enterococcus faecalis [5] = test: Antibacterial activity against Enterococcus faecalis clinical isolate assessed as inhibition of bacterial growth incubated for 24 hrs; assay type: functional
Klebsiella pneumoniae = test: Antibacterial activity against Klebsiella pneumoniae clinical isolate assessed as inhibition of bacterial growth incubated for 24 hrs; assay type: functional
Escherichia coli [6] = test: Antibacterial activity against Escherichia coli clinical isolate assessed as inhibition of bacterial growth incubated for 24 hrs; assay type: functional
Escherichia coli [7] = test: Antibacterial activity against Escherichia coli ATCC 25922 assessed as inhibition of bacterial growth incubated for 24 hrs; assay type: functional
Pseudomonas aeruginosa [8] = test: Antibacterial activity against Pseudomonas aeruginosa clinical isolate assessed as inhibition of bacterial growth incubated for 24 hrs; assay type: functional
Pseudomonas aeruginosa [9] = test: Antibacterial activity against Pseudomonas aeruginosa ATCC 27853 assessed as inhibition of bacterial growth incubated for 24 hrs; assay type: functional
Acinetobacter baumannii = test: Antibacterial activity against Acinetobacter baumannii clinical isolate assessed as inhibition of bacterial growth incubated for 24 hrs; assay type: functional
Streptococcus pneumoniae = test: Antibacterial activity against Streptococcus pneumoniae ATCC 6305 assessed as inhibition of bacterial growth incubated for 24 hrs; assay type: functional
Streptococcus pyogenes = test: Antibacterial activity against Streptococcus pyogenes ATCC 19615 assessed as inhibition of bacterial growth incubated for 24 hrs; assay type: functional
[10] = system: Staphylococcus epidermidis; test: Antibacterial activity against Staphylococcus epidermidis ATCC 12228 assessed as inhibition of bacterial growth incubated for 24 hrs; assay type: functional
Staphylococcus aureus [11] = test: Antibacterial activity against methicillin-resistant Staphylococcus aureus ATCC 43300 assessed as inhibition of bacterial growth incubated for 24 hrs; assay type: functional
Staphylococcus aureus [12] = test: Antibacterial activity against Staphylococcus aureus ATCC 12600 assessed as inhibition of bacterial growth incubated for 24 hrs; assay type: functional
Staphylococcus aureus [13] = test: Antibacterial activity against Staphylococcus aureus ATCC 6538 assessed as inhibition of bacterial growth incubated for 24 hrs; assay type: functional
Staphylococcus aureus [14] = test: Antibacterial activity against Staphylococcus aureus CMCC(B)26003 assessed as inhibition of bacterial growth incubated for 24 hrs; assay type: functional
Staphylococcus aureus [15] = test: Antibacterial activity against Staphylococcus aureus CMCC(B)26001 assessed as inhibition of bacterial growth incubated for 24 hrs; assay type: functional
Enterococcus faecium = test: Antibacterial activity against Enterococcus faecium ATCC 19434 assessed as inhibition of bacterial growth incubated for 24 hrs; assay type: functional
Enterococcus faecalis [16] = test: Antibacterial activity against vancomycin-resistant Enterococcus faecalis clinical isolate p1-2007226001 assessed as inhibition of bacterial growth incubated for 24 hrs; assay type: functional
Enterococcus faecalis [17] = test: Antibacterial activity against vancomycin-resistant Enterococcus faecalis clinical isolate p1-2007225053 assessed as inhibition of bacterial growth incubated for 24 hrs; assay type: functional
Enterococcus faecalis [18] = test: Potency index, ratio of norfloxacin MIC to test compound MIC for antibacterial activity against vancomycin-resistant Enterococcus faecalis clinical isolate p1-2007225053 assessed as inhibition of bacterial growth incubated for 24 hrs; assay type: functional
Enterococcus faecalis [19] = test: Potency index, ratio of ciprofloxacin MIC to test compound MIC for antibacterial activity against vancomycin-resistant Enterococcus faecalis clinical isolate p1-2007225053 assessed as inhibition of bacterial growth incubated for 24 hrs; assay type: functional
Staphylococcus aureus [20] = test: Antibacterial activity against methicillin resistant Staphylococcus aureus clinical isolate assessed as inhibition of bacterial growth at 1 times MIC incubated under dark condition and measured upto 5 hrs relative to control; assay type: functional
Erythrocyte = test: Hemolytic activity in human Red blood cells assessed as concentration required for 5% hemolysis measured after 1.5 hrs by absorbance based assay; assay type: toxicity, cell-based
[21] = Hemolytic activity in human Red blood cells at 256 ug/ml measured after 1.5 hrs by absorbance based assay relative to control; assay type: toxicity, cell-based, Erythrocyte; settings: red blood cells (erythrocytes), at 256 µg/mL, read-out: Activity
L02 = test: Cytotoxicity against human L02 cells assessed as reduction in cell viability at 0.78 to 25 ug/ml measured after 24 hrs by MTT assay; assay type: toxicity, cell-based; settings: l02, 24 h, dose 0.78-25 µg/ml
HUVEC = test: Cytotoxicity against HUVEC cells assessed as reduction in cell viability at 0.78 to 25 ug/ml measured after 24 hrs by MTT assay; assay type: toxicity, cell-based; settings: human, dose 0.78-25 µg/ml
[22] = Cytotoxicity against HUVEC cells assessed as cell viability at 25 ug/ml measured after 24 hrs by MTT assay relative to control; assay type: toxicity, cell-based; settings: human, at 25 µg/mL, read-out: Activity
[23] = Cytotoxicity against human normal Squamous epithelial cell (NOK) assessed as inhibition of cell growth measured after 24 hrs by MTT assay; assay type: toxicity, cell-based; settings: normal squamous epithelial cells (NOK)
[24] = Cytotoxicity against human FHC assessed as inhibition of cell growth measured after 24 hrs by MTT assay; assay type: toxicity, cell-based; settings: FHC cells
Staphylococcus aureus [25] = test: Resistance development in methicillin resistant Staphylococcus aureus assessed as increase in MIC measured after 20 days; assay type: functional, organism-based; settings: time 20.0 day
Pseudomonas aeruginosa [26] = test: Resistance development in Pseudomonas aeruginosa assessed as increase in MIC measured after 20 days; assay type: functional, organism-based; settings: time 20.0 day
Staphylococcus aureus [27] = test: Antibacterial activity against ciprofloxacin-treated Staphylococcus aureus ATCC 6538 assessed as inhibition of bacterial growth measured after 24 hrs; assay type: functional
Pseudomonas aeruginosa [28] = test: Antibacterial activity against ciprofloxacin-treated Pseudomonas aeruginosa ATCC 27853 assessed as inhibition of bacterial growth measured after 24 hrs; assay type: functional
Staphylococcus aureus [29] = test: Antibiofilm activity in methicillin resistant Staphylococcus aureus assessed as biofilm eradication measured after 24 hrs by crystal violet staining based analysis; assay type: functional, organism-based; settings: dose 1-2 µg/ml
Pseudomonas aeruginosa [30] = test: Antibiofilm activity in Pseudomonas aeruginosa assessed as biofilm eradication measured after 24 hrs by crystal violet staining based analysis; assay type: functional, organism-based; settings: dose 1-2 µg/ml
Pseudomonas aeruginosa [31] = test: Induction of intracellular ROS generation in Pseudomonas aeruginosa assessed as increase in fluorescence intensity at 2 ug/ml incubated for 6 hrs by DCFH-DA dye based fluorescence analysis; assay type: functional, organism-based; settings: dose 2.0 µg/ml
Pseudomonas aeruginosa [32] = test: Induction of intracellular ROS generation in Pseudomonas aeruginosa assessed as increase in fluorescence intensity at 2 ug/ml incubated for 6 hrs in presence of N-acetyl-L-cysteine by DCFH-DA dye based fluorescence analysis; assay type: functional, organism-based; settings: dose 2.0 µg/ml
Cell membrane [33] = test: Induction of cell membrane depolarization in methicillin-resistant Staphylococcus aureus assessed as increase in fluorescence intensity at 1 ug/ml measured for 30 mins by DiSC35 dye based fluorescence analysis; assay type: cell membranes; settings: dose 1.0 µg/ml
Cell membrane [34] = test: Induction of cell membrane depolarization in Pseudomonas aeruginosa assessed as increase in fluorescence intensity at 1 ug/ml measured for 30 mins by DiSC35 dye based fluorescence analysis; assay type: cell membranes; settings: dose 1.0 µg/ml
Cell membrane [35] = test: Induction of cell membrane permeability in methicillin-resistant Staphylococcus aureus assessed as increase in fluorescence intensity at 1 to 2 ug/ml incubated for 6 hrs by PI staining based fluorescence analysis; assay type: cell membranes; settings: dose 1-2 µg/ml
Cell membrane [36] = test: Induction of cell membrane permeability in Pseudomonas aeruginosa assessed as increase in fluorescence intensity at 1 to 2 ug/ml incubated for 6 hrs by PI staining based fluorescence analysis; assay type: cell membranes; settings: dose 1-2 µg/ml
Cell membrane [37] = test: Induction of cell membrane damage in methicillin-resistant Staphylococcus aureus assessed as increase in nucleic acid leakage at 0 to 2 ug/ml incubated for 12 hrs by optical density based microplate reader analysis; assay type: cell membranes; settings: dose 0-2 µg/ml
Cell membrane [38] = test: Induction of cell membrane damage in Pseudomonas aeruginosa assessed as increase in nucleic acid leakage at 0 to 2 ug/ml incubated for 12 hrs by optical density based microplate reader analysis; assay type: cell membranes; settings: dose 0-2 µg/ml
Staphylococcus aureus [39] = test: Antibacterial activity against methicillin resistant Staphylococcus aureus assessed as reduction in metabolic activity by measuring reduction in fluorescence intensity at 0.5 to 2 times MIC incubated for 6 hrs by alamar blue assay; assay type: functional, organism-based
Pseudomonas aeruginosa [40] = test: Antibacterial activity against Pseudomonas aeruginosa assessed as reduction in metabolic activity by measuring reduction in fluorescence intensity at 0.5 to 2 times MIC incubated for 6 hrs by alamar blue assay; assay type: functional, organism-based

C[C@H]1COc2c(CC#N)c(F)cc3c(=O)c(C(=O)O)cn1c23
MIC (Staphylococcus aureus [1]): 0.5 µg/mL (≈ 1.65 µM) | MIC (Staphylococcus aureus [2]): 0.25 µg/mL (≈ 0.827 µM) | MIC (Staphylococcus aureus [3]): 0.25 µg/mL (≈ 0.827 µM) | MIC (Staphylococcus aureus [4]): 0.5 µg/mL (≈ 1.65 µM) | MIC (Enterococcus faecalis [5]): 2 µg/mL (≈ 6.62 µM) | MIC (Klebsiella pneumoniae): 1 µg/mL (≈ 3.31 µM) | MIC (Escherichia coli [6]): 1 µg/mL (≈ 3.31 µM) | MIC (Escherichia coli [7]): 0.25 µg/mL (≈ 0.827 µM) | MIC (Pseudomonas aeruginosa [8]): 0.25 µg/mL (≈ 0.827 µM) | MIC (Pseudomonas aeruginosa [9]): 0.25 µg/mL (≈ 0.827 µM) | MIC (Acinetobacter baumannii): 0.25 µg/mL (≈ 0.827 µM) | MIC (Streptococcus pneumoniae): 0.5 µg/mL (≈ 1.65 µM) | MIC (Streptococcus pyogenes): 2 µg/mL (≈ 6.62 µM) | MIC [10]: 0.25 µg/mL (≈ 0.827 µM) | MIC (Staphylococcus aureus [11]): 0.125 µg/mL (≈ 0.414 µM) | MIC (Staphylococcus aureus [12]): 0.25 µg/mL (≈ 0.827 µM) | MIC (Staphylococcus aureus [13]): 0.25 µg/mL (≈ 0.827 µM) | MIC (Staphylococcus aureus [14]): 0.125 µg/mL (≈ 0.414 µM) | MIC (Staphylococcus aureus [15]): 0.125 µg/mL (≈ 0.414 µM) | MIC (Enterococcus faecium): 0.5 µg/mL (≈ 1.65 µM) | MIC (Enterococcus faecalis [16]): 0.5 µg/mL (≈ 1.65 µM) | MIC (Enterococcus faecalis [17]): 0.125 µg/mL (≈ 0.414 µM) | Ratio (Enterococcus faecalis [18]): 8 | Ratio (Enterococcus faecalis [19]): 2 | inhibition (INH) (Staphylococcus aureus [20]): ~100% | HC5 (Erythrocyte): > 10000 µg/mL | hemolysis at 1.5 h, 256 ug/ml [21]: < 1% | Activity (L02): Non-Toxic | Activity (HUVEC): Non-Toxic | viability at 24 h, 25 ug/ml [22]: > 90% | IC50 at 24 h [23]: 54 µg/mL (≈ 179 µM) | IC50 at 24 h [24]: 21 µg/mL (≈ 69.5 µM) | Activity (Staphylococcus aureus [25]): inactive | Activity (Pseudomonas aeruginosa [26]): inactive | MIC (Staphylococcus aureus [27]): 2 µg/mL (≈ 6.62 µM) | MIC (Pseudomonas aeruginosa [28]): 2 µg/mL (≈ 6.62 µM) | Activity (Staphylococcus aureus [29]): Dose-Dependent Effect | Activity (Pseudomonas aeruginosa [30]): Dose-Dependent Effect | Activity (Pseudomonas aeruginosa [31]): Active | Activity (Pseudomonas aeruginosa [32]): inactive | Activity (Cell membrane [33]): Active | Activity (Cell membrane [34]): Active | Activity (Cell membrane [35]): Active | Activity (Cell membrane [36]): Active | Activity (Cell membrane [37]): Active | Activity (Cell membrane [38]): Active | Activity (Staphylococcus aureus [39]): Active | Activity (Pseudomonas aeruginosa [40]): Active
